Measured values: patent US7772241B2, “Variolin derivatives and their use as antitumor agents” (Pharma Mar S.A., priority 2001, dated 2010)
Read-outs that look alike come from different tables or passages of the source.

Columns and labels:
DU-145 = test: Inhibition of cells growth by colorimetric (SRB) assay, DU-145
Method in brief: (§1)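 Human tumour cells seeded at 5×10^3/well in RPMI 1640 10% FBS, attached 18 h, then exposed 48 h to samples at 10 to 10^−8 μg/ml in DMSO/EtOH/PBS (0.5:0.5:99). Growth read by SRB staining after TCA fixation, OD 490 nm, triplicate wells; GI, TGI and LC derived.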

IGROV-ET = test: Inhibition of cells growth by colorimetric (SRB) assay, IGROV-ET; conditions: for GI50 / CC50: Homo sapiens, 48 h; for GI50: read-out: GI50 IGROV-ET, SRB assay, 48 hours exposure; for CC50: read-out: LC50 IGROV-ET, SRB assay, 48 hours exposure; for TGI IGROV-ET: SRB assay, 48 hours exposure
Method in brief: as §1

PANC-1 = test: Inhibition of cells growth by colorimetric (SRB) assay, PANC-1; conditions: for CC50: Homo sapiens, PANC-1, 48 h, read-out: LC50 PANC-1, SRB assay, 48 hours exposure; for TGI PANC-1 / GI50: SRB assay, 48 hours exposure; for GI50: read-out: GI50 PANC-1
Method in brief: as §1

A-549 = test: Inhibition of cells growth by colorimetric (SRB) assay, A-549; conditions: for CC50: Homo sapiens, A549, 48 h, read-out: LC50 A-549, SRB assay, 48 hours exposure; for TGI A-549 / GI50: SRB assay, 48 hours exposure; for GI50: read-out: GI50 A-549
Method in brief: as §1

HMEC1 = test: Inhibition of cells growth by colorimetric (SRB) assay, HMEC1; conditions: for GI50: Homo sapiens, HMEC-1, 48 h, read-out: GI50 H-MEC-1, SRB assay, 48 hours exposure; for TGI H-MEC-1 / CC50: SRB assay, 48 hours exposure; for TGI H-MEC-1: in M (unit assumed); for CC50: read-out: LC50 H-MEC-1
Excerpt: (§2) The finality of these assays is to interrupt the growth of a “in vitro” tumor cell culture by means a continued exhibition of the cells to the sample to be testing.
(§3) This form of the assay employs 96 well cell culture microplates of 9 mm diameter (Faircloth, 1988; Mosmann, 1983). Most of the cell lines are obtained from American Type Culture Collection (ATCC) derived from different human cancer types.
(§4) Cells are maintained in RPMI 1640 10% FBS, supplemented with 0.1 g/l penicillin and 0.1 g/l streptomycin sulphate and then incubated at 37° C., 5% CO2 and 98% humidity. For the experiments, cells were harvested from subconfluent cultures using trypsin and resuspended in fresh medium before plating.
(§5) Cells are seeded in 96 well microtiter plates, at 5×10^3 cells per well in aliquots of 195 μl medium, and they are allowed to attach to the plate surface by growing in drug free medium for 18 hours. Afterward, samples are added in aliquots of 5 μl in a ranging from 10 to 10^−8 μg/ml, dissolved in DMSO/EtOH/PBS (0.5:0.5:99). After 48 hours exposure, the antitumor effect are measured by the SRB methodology: cells are fixed by adding 50 μl of cold 50% (wt/vol) trichloroacetic acid (TCA) and incubating for 60 minutes at 4° C. Plates are washed with deionized water and dried. One hundred μl of SRB solution (0.4% wt/vol in 1% acetic acid) is added to each microtiter well and incubated for 10 minutes at room temperature. Unbound SRB is removed by washing with 1% acetic acid. Plates are air dried and bound stain is solubilized with Tris buffer. Optical densities are read on a automated spectrophotometric plate reader at a single wavelength of 490 nm.
(§6) The values for mean +/−SD of data from triplicate wells are calculated. Some parameters for cellular responses can be calculated: GI=growth inhibition, TGI=total growth inhibition (cytostatic effect) and LC=cell killing (cytotoxic effect).

SK-BR-3 = test: Inhibition of cells growth by colorimetric (SRB) assay, SK-BR-3
Excerpt: as §2, §3, §4, §5, §6

IGROV-1 = test: Inhibition of cells growth by colorimetric (SRB) assay, IGROV-1; conditions: for GI50: read-out: GI50 IGROV, SRB assay, 48 hours exposure
Method in brief: as §1

K-562 = test: Inhibition of cells growth by colorimetric (SRB) assay, K-562; conditions: for CC50: Homo sapiens, K562, 48 h, read-out: LC50 K-562, SRB assay, 48 hours exposure; for TGI K-562 / GI50: SRB assay, 48 hours exposure; for GI50: read-out: GI50 K-562
Method in brief: as §1

SK-OV-3 = test: Inhibition of cells growth by colorimetric (SRB) assay, SK-OV-3; conditions: for CC50: read-out: LC50 SKOV-3, SRB assay, 48 hours exposure; for TGI SKOV-3: SRB assay, 48 hours exposure
Method in brief: as §1

SK-MEL-28 = test: Inhibition of cells growth by colorimetric (SRB) assay, SK-MEL-28; conditions: for GI50 / CC50: Homo sapiens, SK-MEL-28, 48 h; for GI50: read-out: GI50 MEL-28, SRB assay, 48 hours exposure; for CC50: read-out: LC50 MEL-28, SRB assay, 48 hours exposure; for TGI MEL-28: SRB assay, 48 hours exposure
Method in brief: as §1

LNCaP = test: Inhibition of cells growth by colorimetric (SRB) assay, LNCaP; conditions: for CC50: read-out: LC50 LN-caP
Method in brief: as §1

LoVo-Dox = test: Inhibition of cells growth by colorimetric (SRB) assay, LoVo-Dox; conditions: for GI50 / CC50: Homo sapiens, 48 h; for GI50: read-out: GI50 LOVO-DOX, SRB assay, 48 hours exposure; for CC50: read-out: LC50 LOVO-DOX, SRB assay, 48 hours exposure; for TGI LOVO-DOX: SRB assay, 48 hours exposure
Method in brief: as §1

HT-29 = test: Inhibition of cells growth by colorimetric (SRB) assay, HT-29; conditions: for CC50: read-out: LC50 HT-29, SRB assay, 48 hours exposure
Method in brief: as §1

LoVo = test: Inhibition of cells growth by colorimetric (SRB) assay, LoVo; conditions: for GI50: Homo sapiens, LoVo, 48 h, read-out: GI50 LOVO, SRB assay, 48 hours exposure; for TGI LOVO / CC50: SRB assay, 48 hours exposure; for CC50: read-out: LC50 LOVO
Method in brief: as §1

Cl.Nc1nccc(-c2c3cc4ccccc4nc3n3c(N)nccc23)n1 [Compound 42]
TGI DU-145 (DU-145; SRB assay, 48 hours exposure): 6.10E−06 | GI50 (DU-145; read-out: GI50 DU-145, SRB assay, 48 hours exposure): 1480 nM | CC50 (DU-145; read-out: LC50 DU-145, SRB assay, 48 hours exposure): 21100 nM | GI50 (IGROV-ET): 1700 nM | CC50 (IGROV-ET): 15400 nM | TGI IGROV-ET (IGROV-ET): 5.45E−06 | CC50 (PANC-1): 25000 nM | TGI PANC-1 (PANC-1): 2.50E−05 | GI50 (PANC-1): 8870 nM | CC50 (A-549): 14300 nM | TGI A-549 (A-549): 2.26E−06 | GI50 (A-549): 135 nM | GI50 (HMEC1): 114 nM | TGI H-MEC-1 (HMEC1): 5.32E−07 | CC50 (HMEC1): 1860 nM | TGI SK-BR-3 (SK-BR-3; SRB assay, 48 hours exposure): 3.22E−07 | GI50 (SK-BR-3; read-out: GI50 SK-BR-3, SRB assay, 48 hours exposure): 67.7 nM | CC50 (SK-BR-3; read-out: LC50 SK-BR-3, SRB assay, 48 hours exposure): 1670 nM | GI50 (IGROV-1; Homo sapiens, IGROV-1, 48 h): 1560 nM | TGI IGROV (IGROV-1; SRB assay, 48 hours exposure): 5.15E−06 | CC50 (IGROV-1; read-out: LC50 IGROV, SRB assay, 48 hours exposure): 13000 nM | CC50 (K-562): 14600 nM | TGI K-562 (K-562): 7.69E−06 | GI50 (K-562): 4070 nM | GI50 (SK-OV-3; Homo sapiens, SK-OV-3, 48 h, read-out: GI50 SKOV-3, SRB assay, 48 hours exposure): 1080 nM | CC50 (SK-OV-3; Homo sapiens, SK-OV-3, 48 h): 21500 nM | TGI SKOV-3 (SK-OV-3): 5.32E−06 | GI50 (SK-MEL-28): 2560 nM | CC50 (SK-MEL-28): 25000 nM | TGI MEL-28 (SK-MEL-28): 2.50E−05 | GI50 (LNCaP; Homo sapiens, LNCaP, 48 h, read-out: GI50 LN-caP, SRB assay, 48 hours exposure): 432 nM | TGI LN-caP (LNCaP; SRB assay, 48 hours exposure): 1.25E−06 | CC50 (LNCaP; SRB assay, 48 hours exposure): 5970 nM | GI50 (LoVo-Dox): 954 nM | CC50 (LoVo-Dox): 15500 nM | TGI LOVO-DOX (LoVo-Dox): 3.62E−06 | GI50 (HT-29; Homo sapiens, HT-29, 48 h, read-out: GI50 HT-29, SRB assay, 48 hours exposure): 1990 nM | CC50 (HT-29; Homo sapiens, HT-29, 48 h): 25000 nM | TGI HT-29 (HT-29; SRB assay, 48 hours exposure): 2.50E−05 | GI50 (LoVo): 884 nM | TGI LOVO (LoVo): 5.42E−06 | CC50 (LoVo): 25000 nM

Cc1ccc2c(-c3ccnc(N)n3)c3ccnc(N)n3c2n1.Cl [Compound 44]
GI50 (DU-145; Homo sapiens, DU-145, 48 h, read-out: GI50 DU-145, SRB assay, 48 hours exposure): 475 nM | TGI DU-145 (DU-145; SRB assay, 48 hours exposure): 1.51E−06 | GI50 (IGROV-ET): 568 nM | CC50 (IGROV-ET): 17200 nM | TGI IGROV-ET (IGROV-ET): 1.87E−06 | CC50 (PANC-1): 27500 nM | TGI PANC-1 (PANC-1): 9.94E−06 | GI50 (PANC-1): 1710 nM | CC50 (A-549): 27500 nM | TGI A-549 (A-549): 2.75E−05 | GI50 (A-549): 9170 nM | GI50 (HMEC1): 158 nM | TGI H-MEC-1 (HMEC1): 3.07E−07 | CC50 (HMEC1): 1310 nM | GI50 (SK-BR-3; Homo sapiens, SK-BR-3, 48 h, read-out: GI50 SK-BR-3, SRB assay, 48 hours exposure): 612 nM | CC50 (SK-BR-3; Homo sapiens, SK-BR-3, 48 h, read-out: LC50 SK-BR-3, SRB assay, 48 hours exposure): 6310 nM | TGI SK-BR-3 (SK-BR-3; SRB assay, 48 hours exposure): 1.61E−06 | GI50 (IGROV-1; Homo sapiens, IGROV-1, 48 h): 1080 nM | CC50 (IGROV-1; Homo sapiens, IGROV-1, 48 h, read-out: LC50 IGROV, SRB assay, 48 hours exposure): 24600 nM | TGI IGROV (IGROV-1; SRB assay, 48 hours exposure): 6.34E−06 | CC50 (K-562): 27500 nM | TGI K-562 (K-562): 2.75E−05 | GI50 (K-562): 4170 nM | CC50 (SK-OV-3; Homo sapiens, SK-OV-3, 48 h): 27500 nM | TGI SKOV-3 (SK-OV-3): 2.75E−05 | GI50 (SK-MEL-28): 601 nM | CC50 (SK-MEL-28): 8950 nM | TGI MEL-28 (SK-MEL-28): 2.11E−06 | TGI LN-caP (LNCaP; SRB assay, 48 hours exposure): 7.85E−07 | GI50 (LNCaP; read-out: GI50 LN-caP, SRB assay, 48 hours exposure): 351 nM | CC50 (LNCaP; SRB assay, 48 hours exposure): 1760 nM | GI50 (LoVo-Dox): 777 nM | CC50 (LoVo-Dox): 23500 nM | TGI LOVO-DOX (LoVo-Dox): 3.27E−06 | CC50 (HT-29; Homo sapiens, HT-29, 48 h): 27500 nM | TGI HT-29 (HT-29; SRB assay, 48 hours exposure): 1.09E−05 | GI50 (HT-29; read-out: GI50 HT-29, SRB assay, 48 hours exposure): 1090 nM | GI50 (LoVo): 456 nM | TGI LOVO (LoVo): 1.13E−06 | CC50 (LoVo): 2750 nM
